Holding throughout (assay type): in vivo, dog (Labrador Retrievers)
In one assay the test system is CD18+ immune cells. The assay can be described thus: Flow cytometry of CD18+ immune cells in blood of dogs fed mannoheptulose diet. The conditions noted are these: for CD18+ immune cells: analyzed by age. The text has this:
Eighty (n=80) Labrador Retrievers were randomized by age, gender, and littermate to receive either a complete and nutritionally balanced control diet that is similar to Eukanuba Senior Large Breed or an experimental diet that is identical to the control diet except for the inclusion of mannoheptulose as disclosed below. The dogs were split into two study groups. Study 1: A total of 39 older Labrador Retrievers are fed a nutritionally-balanced composition providing mannoheptulose at levels of 0 or about 2 mg/kg of body weight of the dog. Average age of the dogs (12 neutered males, 27 spayed females) at the start of a 4-year study is 6.7 years with a range of 5.1 to 8.2 years of age for the youngest and oldest dog within the cohort, respectively. The control composition is fed as a nutritionally-balanced composition, and it contains no mannoheptulose (0 mg/kg), avocado extract, avocado meal, or avocado concentrate. The test composition is the nutritionally-balanced control composition formulated with avocado extract, avocado meal, or avocado concentrate to provide mannoheptulose at a dose of about 2 mg/kg body weight of the dog. Older dogs are fed one-half their daily allotment of food at 0730 and 1430 each day. Dogs were fed to maintain body weight and body composition score (BCS) within a 2-4 score range. If food adjustments were made, they were made on a quarterly basis. All dogs were fasted overnight and morning meals were withheld until blood collections could be conducted for all immune measurements. Water is provided ad lib. Study 2: A total of 41 younger Labrador Retrievers are fed a nutritionally-balanced composition providing mannoheptulose at levels of 0 or about 2 mg/kg of body weight of the dog. Average age of the dogs (12 neutered males, 29 spayed females) at the start of the 36-month feeding study is 4.0 years with a range of 2.0 to 6.1 years of age for the youngest and oldest dog within the cohort, respectively. […] Cell populations were analyzed on a FACScan Flow Cytometer (Becton Dickinson) using CellQuest Pro Software.

A further assay relates to T cells. The assay can be described thus: Lymphocyte blastogenesis (3H-thymidine), T cell mitogenic stimulation of PBMCs from dogs fed mannoheptulose diet. The text has this:
(§1) Phytohaemagglutinin (PHA), the lectin extract from the red kidney bean (Phaseolus vulgaris), contains potent, T-cell mitogenic activity (Hammerstrom, S. et al. (1982) Proc. Nall. Acad. Sci. USA 79, 1611-1615). Pokeweed mitogen (PWM), derived from Phytolacca Americana, is a B cell mitogen (Schreck et al., Annals of Clinical and Laboratory Science, Vol 12, Issue 6, 455-462). Together these three mitogens are used to stimulate immune cells in vitro in the lymphocyte blastogenesis assay, a well accepted indicator of immune response in vivo. Many studies have shown this assay to be responsive to the age-associated decline in immune system response (Goldrosen et al., 1977—Journal of surgical oncology 9: 229-234). A lower proliferative capacity indicates the immune cells cannot become activated and multiply as efficiently (a key step in the process of mounting an effective immune response).
Eighty (n=80) Labrador Retrievers were randomized by age, gender, and littermate to receive either a complete and nutritionally balanced control diet that is similar to Eukanuba Senior Large Breed or an experimental diet that is identical to the control diet except for the inclusion of mannoheptulose as disclosed below. The dogs were split into two study groups.
Study 1: A total of 39 older Labrador Retrievers are fed a nutritionally-balanced composition providing mannoheptulose at levels of 0 or about 2 mg/kg of body weight of the dog. Average age of the dogs (12 neutered males, 27 spayed females) at the start of a 4-year study is 6.7 years with a range of 5.1 to 8.2 years of age for the youngest and oldest dog within the cohort, respectively. The control composition is fed as a nutritionally-balanced composition, and it contains no mannoheptulose (0 mg/kg), avocado extract, avocado meal, or avocado concentrate. The test composition is the nutritionally-balanced control composition formulated with avocado extract, avocado meal, or avocado concentrate to provide mannoheptulose at a dose of about 2 mg/kg body weight of the dog. […]

The next assay deals with B cells. The assay can be described thus: Lymphocyte blastogenesis (3H-thymidine), B cell mitogenic stimulation of PBMCs from dogs fed mannoheptulose diet.
From the text: as §1
Eighty (n=80) Labrador Retrievers were randomized by age, gender, and littermate to receive either a complete and nutritionally balanced control diet that is similar to Eukanuba Senior Large Breed or an experimental diet that is identical to the control diet except for the inclusion of mannoheptulose as disclosed below. The dogs were split into two study groups. […]

Another assay has as its system 8-OHdG. The assay can be described thus: Serum 8-OHdG ELISA (DNA oxidation) in dogs fed mannoheptulose diet. The text has this:
8-Oxo-2′-deoxyguanosine (8-OHdG) is an oxidized derivative of deoxyguanosine. 8-OHdG is one of the major products of DNA oxidation. As part of the immune response, T and B cells must proliferate (become activated and divide). A key step to robust proliferation is DNA replication. If cells have damaged DNA or must repair DNA, this crucial step can be hindered. […] By lowering DNA damage in the mannoheptulose fed dogs, immune cell replication would be facilitated, helping to enable a key step in the activation cascade of the immune system. Eighty (n=80) Labrador Retrievers were randomized by age, gender, and littermate to receive either a complete and nutritionally balanced control diet that is similar to Eukanuba Senior Large Breed or an experimental diet that is identical to the control diet except for the inclusion of mannoheptulose as disclosed below. The dogs were split into two study groups. Study 1: A total of 39 older Labrador Retrievers are fed a nutritionally-balanced composition providing mannoheptulose at levels of 0 or about 2 mg/kg of body weight of the dog. […] Amount of 8-OHDG is quantified using a commercially available ELISA kit from Oxis Health Products, catalog #21026. […] Add […] of the Stop Solution, mix, wait 3 minutes and read the absorbance at 450 nm.
On the technique in general: ELISA stands for enzyme-linked immunosorbent assay.

Setting [1] is: summary table, aging dogs consuming diet with MH, direction of change.

Structures are written as SMILES.

Take `O=C(CO)[C@@H](O)[C@@H](O)[C@H](O)[C@H](O)CO` [mannoheptulose]: the “CD18+ immune cells” value in the assay with CD18+ immune cells (dog group 1 (older dogs), test diet delivering 2 mg mannoheptulose per kg body weight vs diet matched controls, FIG. 1) is recorded as “significant attenuation in the increase of CD18+ immune cells”; with CD18+ immune cells (dog group 2 (younger dogs), test diet with mannoheptulose about 2 mg/kg vs diet matched controls, FIG. 2) it was “trend for attenuation in the increase of CD18+ immune cells”. In addition, the “% CD18 + cells” value with CD18+ immune cells (setting [1]) is listed as “↓”. The “T cell mitogenic stimulation to ConA” value in the assay on T cells (dog groups 1 and 2, mannoheptulose diet about 2 mg/kg vs control diet, FIGS. 3 and 4) is on record as “either a statistical trend or a statistical improvement in T cell mitogenic stimulation to ConA”. Besides, the “T cell mitogenic stimulation to PHA” value in the assay on T cells (dog groups 1 and 2, mannoheptulose diet about 2 mg/kg vs control diet, FIGS. 5 and 6) is “either a statistical trend or a statistical improvement in T cell mitogenic stimulation to PHA”. The T cell proliferation result with T cells (setting [1]) is given as “↑”. Also, the “B cell mitogenic stimulation to PWM” value in the assay with B cells (dog groups 1 and 2, mannoheptulose diet about 2 mg/kg vs control diet, FIGS. 7 and 8) is “either a statistical trend or a statistical improvement in B cell mitogenic stimulation to PWM”. In addition, in the assay with B cells (setting [1]), the B cell proliferation result is given as “↑”. Besides, the “serum 8-OHdG” value in the assay with 8-OHdG (dog group 1, mannoheptulose diet vs control diet, FIG. 9) was “significantly lower serum 8-OHdG”. Besides, the DNA damage result in the assay with 8-OHdG (setting [1]) was “↓”.
